From patent US20250353841A1 (BIOGEN MA INC., priority 2022, published 2025)

Test system: mutant Huntington (HTT) protein
Test: HTT Mutant HTRF iPSC assay (mHTT protein lowering)
Format: cell-based
Conditions: human iPSC derived from a HTT patient with a poly-Q49 mutation

Row | SMILES | IC50
1 | Cc1cn2nc(-c3cc(F)c4nc(N5CCC(N(C)C)CC5)oc4c3)cc2c(C)n1 [Compound 497, 1-(6-(4,6-dimethylpyrazolo[1,5-a]pyrazin-2-yl)-4-fluorobenzo[d]oxazol-2-yl)-N,N-dimethylpiperidin-4-amine] | 0.1 to 1 µM
2 | Cc1cn2nc(-c3cc(F)c4[nH]c(C5CCNC(C)C5)nc4c3)cc(C)c2n1 (centres unmarked) [Compound 418, 6-(7-fluoro-2-(2-methylpiperidin-4-yl)-1H-benzo[d]imidazol-5-yl)-2,8-dimethylimidazo[1,2-b]pyridazine] | 0.1 to 1 µM
3 | Cc1cn2nc(-c3cc(F)c4nc(NC(=O)C5CCNC56CC6)nn4c3)cc(C)c2n1 (centres unmarked) [Compound 323, N-(6-(2,8-dimethylimidazo[1,2-b]pyridazin-6-yl)-8-fluoro-[1,2,4]triazolo[1,5-a]pyridin-2-yl)-4-azaspiro[2.4]heptane-7-carboxamide] | 0.1 to 1 µM
4 | Cc1cn2nc(-c3cc(F)c4[nH]c(C5CCNC(C)(C)C5)nc4c3)cc(C)c2n1 (centres unmarked) [Compound 419] | 0.1 to 1 µM
5 | Cc1nc2c(C)cc(-c3cc(F)c4nc(N5CCC6(CCN(C)CC6)C5)oc4c3)nn2n1 [Compound 498, 6-(2,8-dimethyl-[1,2,4]triazolo[1,5-b]pyridazin-6-yl)-4-fluoro-2-(8-methyl-2,8-diazaspiro[4.5]decan-2-yl)benzo[d]oxazole] | 0.1 to 1 µM
6 | Cc1cn2nc(-c3ccc4nc(C5CCNCC5)oc4c3)cc(C)c2n1 [Compound 550, 6-(2,8-dimethylimidazo[1,2-b]pyridazin-6-yl)-2-(4-piperidyl)-1,3-benzoxazole] | 0.1 to 1 µM
7 | Cc1cn2nc(-c3cc(F)c4nc(NC(=O)C5CCNC(C)C5)nn4c3)cc(C)c2n1 (centres unmarked) [Compound 322, N-(6-(2,8-dimethylimidazo[1,2-b]pyridazin-6-yl)-8-fluoro-[1,2,4]triazolo[1,5-a]pyridin-2-yl)-2-methylpiperidine-4-carboxamide] | 0.1 to 1 µM
8 | Fc1cc(-c2ccc3[nH]ncc3c2)cn2cc(C3CCNCC3)nc12 [Compound 59, 5-(8-fluoro-2-(piperidin-4-yl)imidazo[1,2-a]pyridin-6-yl)-1H-indazole] | 1 to 9 µM
9 | Cc1cn2nc(-c3cc(F)c4nc(NC(=O)C5(F)CNC5)cn4c3)cc(C)c2n1 [Compound 270, N-(6-(2,8-dimethylimidazo[1,2-b]pyridazin-6-yl)-8-fluoroimidazo[1,2-a]pyridin-2-yl)-3-fluoroazetidine-3-carboxamide] | < 0.1 µM
10 | Cc1cn2cc(-c3cc(F)c4nn(C5CCNCC5)nc4c3)cc2c(C)n1 [Compound 378, 6-(1,3-dimethylpyrrolo[1,2-a]pyrazin-7-yl)-4-fluoro-2-(piperidin-4-yl)-2H-benzo[d][1,2,3]triazole] | 0.1 to 1 µM
11 | Cc1cn2nc(-c3cc(F)c4nc(N5CCC6(CN(C)C6)C5)oc4c3)cc(C)c2n1 [Compound 472, 6-(2,8-dimethylimidazo[1,2-b]pyridazin-6-yl)-4-fluoro-2-(2-methyl-2,6-diazaspiro[3.4]octan-6-yl)benzo[d]oxazole] | 0.1 to 1 µM
12 | Cc1cn2nc(-c3cc(F)c4nc(C56CCC(N)(CC5)CC6)cn4c3)cc(C)c2n1 [Compound 108, 4-(6-(2,8-dimethylimidazo[1,2-b]pyridazin-6-yl)-8-fluoroimidazo[1,2-a]pyridin-2-yl)bicyclo[2.2.2]octan-1-amine] | < 0.1 µM
13 | Cc1cn2nc(-c3cc(F)c4[nH]c(C5CCN(C6CCC6)CC5)nc4c3)cc(C)c2n1 [Compound 426, 6-(2-(1-cyclobutylpiperidin-4-yl)-7-fluoro-1H-benzo[d]imidazol-5-yl)-2,8-dimethylimidazo[1,2-b]pyridazine] | < 0.1 µM
14 | Cc1cn2nc(-c3cc(F)c4nc(NC(=O)CC5CCNC5)cn4c3)cc(C)c2n1 (racemic) [Compound 283, N-(6-(2,8-dimethylimidazo[1,2-b]pyridazin-6-yl)-8-fluoroimidazo[1,2-a]pyridin-2-yl)-2-(pyrrolidin-3-yl)acetamide] | 0.1 to 1 µM
15 | Cc1cn2nc(-c3cc(F)c4nc(C5CNC5)cn4c3)cc(C)c2n1 [Compound 64] | 1 to 9 µM
16 | CN[C@@H]1CCC[C@H](c2cn3cc(-c4cc(F)c5nn(C)cc5c4)cc(F)c3n2)C1 (stereo in doubt) [Compound 162, rel-(1R,3S)-3-(8-fluoro-6-(7-fluoro-2-methyl-2H-indazol-5-yl)imidazo[1,2-a]pyridin-2-yl)-N-methylcyclohexan-1-amine] | 0.1 to 1 µM
17 | CNC1CCC(n2cc3cc(-c4cc(C)c5nc(C)cn5n4)cc(F)c3n2)CC1 (centres unmarked) [Compound 368, 4-(5-(2,8-dimethylimidazo[1,2-b]pyridazin-6-yl)-7-fluoro-2H-indazol-2-yl)-N-methylcyclohexan-1-amine] | 0.1 to 1 µM
18 | Cc1cn2nc(-c3cc(Cl)c4oc(C5CCNCC5)nc4c3)cc(C)c2n1 [Compound 535, 7-chloro-5-(2,8-dimethylimidazo[1,2-b]pyridazin-6-yl)-2-(4-piperidyl)-1,3-benzoxazole] | 1 to 9 µM
19 | Cc1cn2nc(-c3cc(F)c4nc(NC(=O)C5CC6(CCNC6)C5)cn4c3)cc(C)c2n1 (centres unmarked) [Compound 252, N-(6-(2,8-dimethylimidazo[1,2-b]pyridazin-6-yl)-8-fluoroimidazo[1,2-a]pyridin-2-yl)-6-azaspiro[3.4]octane-2-carboxamide] | 0.1 to 1 µM

Row | SMILES | IC50
20 | Cc1cn2nc(-c3cc(F)c4nc(NC(=O)C5CN(C(C)C)C5)cn4c3)cc2c(C)n1 [Compound 295, N-(6-(4,6-dimethylpyrazolo[1,5-a]pyrazin-2-yl)-8-fluoroimidazo[1,2-a]pyridin-2-yl)-1-isopropylazetidine-3-carboxamide] | < 0.1 µM
21 | CCN1CCC(c2cn3cc(-c4ccc5nn(C)cc5c4)cc(F)c3n2)CC1 [Compound 7, 5-(2-(1-ethylpiperidin-4-yl)-8-fluoroimidazo[1,2-a]pyridin-6-yl)-2-methyl-2H-indazole] | 1 to 9 µM
22 | Cc1nc2ccc(-c3cc(F)c4nn(C5CCNCC5)cc4c3)nn2n1 [Compound 561, 6-(7-fluoro-2-(piperidin-4-yl)-2H-indazol-5-yl)-2-methyl-[1,2,4]triazolo[1,5-b]pyridazine] | < 0.1 µM
23 | Cc1cn2nc(-c3cc(F)c4nc(C5CCNCC5)nn4c3)cc(C)c2n1 [Compound 150, 6-(2,8-dimethylimidazo[1,2-b]pyridazin-6-yl)-8-fluoro-2-(4-piperidyl)-[1,2,4]triazolo[1,5-a]pyridine] | < 0.1 µM
24 | Cc1cn2nc(-c3cc(F)c4nc(NC(=O)C5(C)CN(C)C5)cn4c3)cc(C)c2n1 [Compound 261, N-(6-(2,8-dimethylimidazo[1,2-b]pyridazin-6-yl)-8-fluoroimidazo[1,2-a]pyridin-2-yl)-1,3-dimethylazetidine-3-carboxamide] | < 0.1 µM
25 | Cc1cn2nc(-c3cc(F)c4nc(NC(=O)CC5CNC5)cn4c3)cc(C)c2n1 [Compound 281, 2-(azetidin-3-yl)-N-(6-(2,8-dimethylimidazo[1,2-b]pyridazin-6-yl)-8-fluoroimidazo[1,2-a]pyridin-2-yl)acetamide] | < 0.1 µM
26 | Cc1cn2nc(-c3cc(F)c4nc(N5CCC(CN(C)CC6CC6)C5)oc4c3)cc(C)c2n1 (centres unmarked) [Compound 489, 1-cyclopropyl-N-((1-(6-(2,8-dimethylimidazo[1,2-b]pyridazin-6-yl)-4-fluorobenzo[d]oxazol-2-yl)pyrrolidin-3-yl)methyl)-N-methylmethanamine] | < 0.1 µM
27 | COc1cc2cc(-c3cc(F)c4nc(C5CCNCC5)cn4c3)ccc2cn1 [Compound 164, 6-(8-fluoro-2-(piperidin-4-yl)imidazo[1,2-a]pyridin-6-yl)-3-methoxyisoquinoline] | 0.1 to 1 µM
28 | Cc1cn2cc(-c3cc(F)c4nc(C5CCN(C)CC5)cn4c3)ccc2n1 [Compound 10, 8-fluoro-2′-methyl-2-(1-methylpiperidin-4-yl)-6,6′-biimidazo[1,2-a]pyridine] | 1 to 9 µM
29 | Cn1cc2cc(-c3cc(F)c4nc(C56CC(N)(CO5)C6)cn4c3)cc(F)c2n1 [Compound 68] | 1 to 9 µM
30 | CCN1CCC(c2cn3cc(-c4cc(C)c5nn(C)cc5c4)cc(F)c3n2)CC1 [Compound 25, 5-(2-(1-ethylpiperidin-4-yl)-8-fluoroimidazo[1,2-a]pyridin-6-yl)-2,7-dimethyl-2H-indazole] | 0.1 to 1 µM
31 | Cc1cn2nc(-c3cc(F)c4nc(NC(=O)[C@H]5[C@@H]6CN(C)C[C@@H]65)cn4c3)cc(C)c2n1 [Compound 262, (1R,5S,6r)-N-(6-(2,8-dimethylimidazo[1,2-b]pyridazin-6-yl)-8-fluoroimidazo[1,2-a]pyridin-2-yl)-3-methyl-3-azabicyclo[3.1.0]hexane-6-carboxamide] | < 0.1 µM
32 | Cc1cn2nc(-c3cc(F)c4nc(C5CCC(N(C)C)CC5)nn4c3)cc(C)c2n1 (centres unmarked) [Compound 447, 4-(6-(2,8-dimethylimidazo[1,2-b]pyridazin-6-yl)-8-fluoro-[1,2,4]triazolo[1,5-a]pyridin-2-yl)-N,N-dimethylcyclohexan-1-amine] | 0.1 to 1 µM
33 | Fc1cc(-c2ccc3nc(C(F)F)cn3n2)cc2cn(C3CCNCC3)nc12 [Compound 352, 2-(difluoromethyl)-6-(7-fluoro-2-(piperidin-4-yl)-2H-indazol-5-yl)imidazo[1,2-b]pyridazine] | 1 to 9 µM
34 | Cc1cn2nc(-c3cc(F)c4nc(C5CCNC5)cn4c3)cc(C)c2n1 (centres unmarked) [Compound 160, 6-(8-fluoro-2-(pyrrolidin-3-yl)imidazo[1,2-a]pyridin-6-yl)-2,8-dimethylimidazo[1,2-b]pyridazine] | < 0.1 µM
35 | Fc1cc(-c2cc3ccc(Cl)cc3o2)cn2cc(C3CCNCC3)nc12 [Compound 39, 6-(6-chlorobenzofuran-2-yl)-8-fluoro-2-(piperidin-4-yl)imidazo[1,2-a]pyridine] | 1 to 9 µM
36 | Cc1cn2nc(-c3cc(F)c4nc(C5CCN(C6CCC6)CC5)nn4c3)cc(C)c2n1 [Compound 437, 2-(1-cyclobutylpiperidin-4-yl)-6-(2,8-dimethylimidazo[1,2-b]pyridazin-6-yl)-8-fluoro-[1,2,4]triazolo[1,5-a]pyridine] | 0.1 to 1 µM
37 | Cc1cn2nc(-c3cc(F)c4nc(NC(=O)C5CCCN(C)C5)cn4c3)cc(C)c2n1 (single isomer, unassigned) [Compound 277] | < 0.1 µM
38 | Cc1cn2nc(-c3cc(F)c4nc(C5CCNC(C)(C)C5)cn4c3)cc(C)c2n1 (single isomer, unassigned) [Compound 234] | < 0.1 µM
